Measurements as given in ChEMBL document CHEMBL2439970 (Bioorg Med Chem Lett, 2013).

Columns and labels:
Format in all cases: ADME, organism-based
[1] = Volume of distribution at steady state in Sprague-Dawley rat at 1 mg/kg, iv and 2 mg/kg, po; details: in vivo, read-out: Vdss
[2] = Half life in Sprague-Dawley rat at 1 mg/kg, iv and 2 mg/kg, po; details: in vivo
[3] = Oral bioavailability in Sprague-Dawley rat 2 mg/kg; details: in vivo
[4] = test system: Rattus norvegicus; test: Dose normalized AUC in Sprague-Dawley rat 2 mg/kg, po; parameters: dose 2 mg/kg, route oral; details: in vivo
[5] = Clearance in Sprague-Dawley rat at 1 mg/kg, iv and 2 mg/kg, po; details: in vivo

Row | SMILES | Vd [1] [L/kg] | half-life [2] [min] | bioavailability [3] [%] | AUC/dose [4] [µM·kg·h/mg] | clearance [5] [mL/min/kg]
1 | O=C1OCCc2cc(CCN3CCN(C(=O)Cc4ccc(-n5cnnn5)cc4)CC3)ccc21 | 1.3 | 30 | 52 | 0.48 | 43
2 | O=C1OCc2cc(CCN3CCN(C(=O)Cc4ccc(-n5cnnn5)cc4)CC3)ccc21 | 0.66 | 37.2 | 33 | 0.34 | 40
